Consider 17 molecules from ChEMBL document CHEMBL5150000, “Insights on Dengue and Zika NS5 RNA-dependent RNA polymerase (RdRp) inhibitors” (Eur J Med Chem, 2021).

Some results are limits rather than exact numbers.

Series [1] has as its target T1, Nonstructural protein 5 (Dengue virus, UniProt V5TFZ2). Kind of series: Inhibition of DENV-4 NS5. Further details: species or system dengue virus type 4.
The next series deals with Hepacivirus hominis. Description: Inhibition of C-terminal his6-tagged HCV NS5/RNA-dependent RNA polymerase expressed in Escherichia coli at 100 uM incubated for 2 hrs by Microbeta counter analysis.
The nature of series [2]: Inhibition od DENV-2 RNA-dependent RNA polymerase. More on the design: species or system dengue virus type 2.
For series [3], the target named is T2, DNA polymerase alpha catalytic subunit (Homo sapiens) (UniProt P09884).
T2 sequence (whole entry): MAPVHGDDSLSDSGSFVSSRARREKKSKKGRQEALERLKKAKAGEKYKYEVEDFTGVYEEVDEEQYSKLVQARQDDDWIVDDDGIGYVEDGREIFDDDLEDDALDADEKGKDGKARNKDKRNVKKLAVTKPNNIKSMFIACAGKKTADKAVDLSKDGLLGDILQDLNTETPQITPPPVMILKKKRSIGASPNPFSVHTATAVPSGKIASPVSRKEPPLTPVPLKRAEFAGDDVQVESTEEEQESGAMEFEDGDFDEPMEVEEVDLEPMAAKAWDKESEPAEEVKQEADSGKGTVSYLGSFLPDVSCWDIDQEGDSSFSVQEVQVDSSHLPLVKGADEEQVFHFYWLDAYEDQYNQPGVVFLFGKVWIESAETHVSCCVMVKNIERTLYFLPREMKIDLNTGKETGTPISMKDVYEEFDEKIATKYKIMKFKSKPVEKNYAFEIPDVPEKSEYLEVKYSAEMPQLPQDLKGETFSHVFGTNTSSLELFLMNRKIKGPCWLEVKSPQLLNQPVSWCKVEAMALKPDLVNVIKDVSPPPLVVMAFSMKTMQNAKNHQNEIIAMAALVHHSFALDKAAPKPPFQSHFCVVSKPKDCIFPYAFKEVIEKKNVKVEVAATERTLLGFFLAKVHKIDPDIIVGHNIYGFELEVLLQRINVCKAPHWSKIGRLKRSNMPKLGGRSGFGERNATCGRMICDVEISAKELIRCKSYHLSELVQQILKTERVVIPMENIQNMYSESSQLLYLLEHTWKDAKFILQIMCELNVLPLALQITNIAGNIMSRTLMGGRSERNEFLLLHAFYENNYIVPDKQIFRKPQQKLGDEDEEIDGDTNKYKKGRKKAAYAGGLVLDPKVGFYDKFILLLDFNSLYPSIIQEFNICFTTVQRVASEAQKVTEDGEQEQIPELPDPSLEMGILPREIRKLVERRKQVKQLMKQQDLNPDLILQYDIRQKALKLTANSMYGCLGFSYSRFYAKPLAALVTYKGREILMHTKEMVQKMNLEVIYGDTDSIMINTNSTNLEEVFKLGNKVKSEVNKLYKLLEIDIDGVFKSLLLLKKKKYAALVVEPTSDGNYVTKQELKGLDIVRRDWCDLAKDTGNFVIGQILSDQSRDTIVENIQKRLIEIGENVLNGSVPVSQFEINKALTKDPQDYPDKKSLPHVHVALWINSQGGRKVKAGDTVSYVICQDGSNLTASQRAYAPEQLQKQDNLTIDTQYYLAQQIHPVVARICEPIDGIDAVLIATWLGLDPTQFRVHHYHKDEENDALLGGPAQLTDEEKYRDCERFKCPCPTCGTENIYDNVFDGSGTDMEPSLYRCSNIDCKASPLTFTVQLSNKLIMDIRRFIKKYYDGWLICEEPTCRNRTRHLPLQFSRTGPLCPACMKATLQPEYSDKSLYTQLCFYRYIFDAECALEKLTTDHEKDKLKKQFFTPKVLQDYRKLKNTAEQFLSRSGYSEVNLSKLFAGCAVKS
Kind of series: Inhibition of human DNA polymerase alpha at 100 uM incubated for 60 mins by Microbeta counter analysis.

Series [4] has as its target T1, Nonstructural protein 5. Kind of series: Inhibition of DENV-2 NS5. Further details: species or system dengue virus type 2.
Series [5] has as its target T1, Nonstructural protein 5. Description: Inhibition of DENV NS5/RNA-dependent RNA polymerase.
Series [6] is described as follows: Inhibition of DENV RNA-dependent RNA polymerase. More on the design: species or system dengue virus type 1.
The subject of series [7] is Dengue virus. Description: Antiviral activity against DENV NS5/RNA-dependent RNA polymerase. It is filed as functional, organism-based.
The nature of series [8]: Cytotoxicity against African green monkey Vero cells. It is filed as toxicity, cell-based. Particulars: chlorocebus sabaeus.
The target of another series is NS5 (Zika virus) (UniProt A0A143MHK7). Kind of series: Inhibition of Zika virus RNA-dependent RNA polymerase relative to control. Conditions: concentration not given here.
Series [9] deals with Dengue virus. Kind of series: Inhibition of DENV RNA-dependent RNA polymerase relative to control. Particulars: concentration not given here.
Series [10] is described as follows: Inhibition of DENV RNA-dependent RNA polymerase activity. More on the design: species or system Dengue virus.
Series [11] can be described thus: Inhibition of DENV RNA-dependent RNA polymerase in hamster BHK-21 cells. Format: cell-based, Dengue virus.
A short description of series [12]: Cytotoxicity against hamster BHK-21 cells. It is filed as toxicity, cell-based, Mesocricetus auratus.
A further series addresses NS5 (Zika virus, UniProt A0A143MHK7). Kind of series: Inhibition of Zika virus RNA-dependent RNA polymerase activity.
In the next series the target is Genome polyprotein (dengue virus type 2, UniProt P29990). Kind of series: Inhibition of DENV-2 DENV2 NS2B-NS3.
Series [13] deals with T1, Nonstructural protein 5. Kind of series: Inhibition of full length His-tagged DENV-2 NS5 incubated for 1 hr. Further details: species or system dengue virus type 2.
Series [14] has as its target T1, Nonstructural protein 5. Description: Binding affinity to full length His-tagged DENV-2 NS5 assessed as dissociation constant. Further details: species or system dengue virus type 2.
A short description of series [15]: Inhibition of DENV-3 RNA-dependent RNA polymerase. Further details: species or system dengue virus type 3.
Series [16] in a line: Binding affinity to DENV-3 RNA-dependent RNA polymerase assessed as dissociation constant incubated for 40 sec by surface plasmon resonance analysis. More on the design: species or system dengue virus type 3. On the technique in general: SPR reads the build-up and loss of mass on a sensor chip optically.
Series [17] concerns dengue virus type 4. Kind of series: Binding affinity to DENV-4 RNA-dependent RNA polymerase assessed as change in enthalpy by ITC analysis. For orientation: In ITC the heat of successive injections is recorded.
Series [18] relates to Zika virus. Kind of series: Antiviral activity against Zika virus NS5/RNA-dependent RNA polymerase. It is filed as functional, organism-based.
Series [19] deals with Zika virus. Kind of series: Antiviral activity against Zika virus infected in African green monkey Vero cells assessed as reduction in viral replication incubated for 24 hrs. It is filed as functional, organism-based.
Another series relates to dengue virus type 2. Kind of series: Antiviral activity against DENV-2 RNA-dependent RNA polymerase infected in human Huh-7 cells assessed as reduction in viral replication by RT-PCR analysis. It is filed as functional, organism-based.
In series [20] the test system is Zika virus. Description: Antiviral activity against Zika virus infected in African green monkey Vero E6 cells. Format: functional, organism-based. Conditions: Vero C1008.
The subject of series [21] is dengue virus type 4. Kind of series: Antiviral activity against DENV-4 infected in African green monkey Vero E6 cells. Format: functional, organism-based. Conditions: Vero C1008.
For the next series, the system named is dengue virus type 3. Kind of series: Antiviral activity against DENV-3 infected in African green monkey Vero E6 cells. Format: functional, organism-based. Conditions: Vero C1008.
Another series relates to dengue virus type 1. Description: Antiviral activity against DENV-1 infected in African green monkey Vero E6 cells. Conditions: Vero C1008. Format: functional, organism-based.

T1 sequence (V5TFZ2 whole entry): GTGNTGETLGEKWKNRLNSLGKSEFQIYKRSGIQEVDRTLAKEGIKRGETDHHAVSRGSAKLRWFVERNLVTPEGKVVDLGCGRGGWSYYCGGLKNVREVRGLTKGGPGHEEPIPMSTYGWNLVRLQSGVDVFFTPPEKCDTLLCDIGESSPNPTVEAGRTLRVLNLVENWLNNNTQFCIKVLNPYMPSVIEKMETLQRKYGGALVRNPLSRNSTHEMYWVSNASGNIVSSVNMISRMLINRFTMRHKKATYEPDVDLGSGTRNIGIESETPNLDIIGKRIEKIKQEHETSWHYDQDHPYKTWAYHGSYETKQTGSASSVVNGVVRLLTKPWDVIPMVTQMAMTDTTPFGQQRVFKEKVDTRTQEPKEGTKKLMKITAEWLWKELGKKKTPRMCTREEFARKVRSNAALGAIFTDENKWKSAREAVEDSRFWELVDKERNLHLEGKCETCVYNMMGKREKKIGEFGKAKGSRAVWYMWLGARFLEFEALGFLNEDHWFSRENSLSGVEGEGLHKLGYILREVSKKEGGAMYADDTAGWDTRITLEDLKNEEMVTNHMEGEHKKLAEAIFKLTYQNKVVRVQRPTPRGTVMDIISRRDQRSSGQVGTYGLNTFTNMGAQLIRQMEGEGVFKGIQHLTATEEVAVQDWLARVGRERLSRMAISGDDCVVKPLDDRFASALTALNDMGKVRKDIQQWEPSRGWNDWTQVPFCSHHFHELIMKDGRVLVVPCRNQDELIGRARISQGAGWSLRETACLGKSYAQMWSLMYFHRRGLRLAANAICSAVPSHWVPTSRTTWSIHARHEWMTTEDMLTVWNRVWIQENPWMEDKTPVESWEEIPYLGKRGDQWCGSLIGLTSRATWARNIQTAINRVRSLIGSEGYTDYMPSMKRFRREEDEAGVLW
Sequence of NS5 (Zika virus) (A0A143MHK7 as listed by the source): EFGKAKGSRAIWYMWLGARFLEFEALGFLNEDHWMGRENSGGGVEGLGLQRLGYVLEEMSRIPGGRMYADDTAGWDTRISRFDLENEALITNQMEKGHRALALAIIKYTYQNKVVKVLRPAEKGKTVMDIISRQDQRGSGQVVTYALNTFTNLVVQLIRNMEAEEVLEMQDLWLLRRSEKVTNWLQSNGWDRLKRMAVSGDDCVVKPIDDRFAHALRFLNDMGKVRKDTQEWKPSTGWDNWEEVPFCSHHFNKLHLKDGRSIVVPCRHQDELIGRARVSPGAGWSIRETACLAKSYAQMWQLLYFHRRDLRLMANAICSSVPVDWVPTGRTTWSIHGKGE
Sequence of Genome polyprotein (P29990 1346-1475 limits assumed): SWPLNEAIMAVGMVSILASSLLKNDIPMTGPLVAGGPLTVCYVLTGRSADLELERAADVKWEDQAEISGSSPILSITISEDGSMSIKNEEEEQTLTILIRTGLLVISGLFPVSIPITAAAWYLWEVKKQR
Sequence of Genome polyprotein (P29990 1476-2093 limits assumed): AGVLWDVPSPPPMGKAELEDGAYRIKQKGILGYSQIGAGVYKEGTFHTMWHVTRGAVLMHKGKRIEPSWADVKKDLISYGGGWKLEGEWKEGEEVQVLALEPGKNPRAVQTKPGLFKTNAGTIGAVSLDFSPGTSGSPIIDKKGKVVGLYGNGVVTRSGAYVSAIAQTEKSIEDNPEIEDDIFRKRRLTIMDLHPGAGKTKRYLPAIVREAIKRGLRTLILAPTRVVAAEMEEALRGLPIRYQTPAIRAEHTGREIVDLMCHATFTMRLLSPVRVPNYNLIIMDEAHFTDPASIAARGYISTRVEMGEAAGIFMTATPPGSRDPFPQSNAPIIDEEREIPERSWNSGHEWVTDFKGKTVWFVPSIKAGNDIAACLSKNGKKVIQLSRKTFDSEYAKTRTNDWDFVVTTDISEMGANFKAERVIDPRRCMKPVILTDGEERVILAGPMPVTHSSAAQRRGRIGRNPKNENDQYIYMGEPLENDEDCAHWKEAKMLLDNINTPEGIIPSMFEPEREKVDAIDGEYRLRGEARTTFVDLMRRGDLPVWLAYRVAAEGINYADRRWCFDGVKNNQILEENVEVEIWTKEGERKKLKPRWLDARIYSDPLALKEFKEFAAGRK
Sequence of NS5 (A0A143MHK7 whole entry): as the sequence (A0A143MHK7 as listed by the source) above

In general, IC50 refers to the point on the concentration scale where inhibition reaches its midpoint. For orientation: inhibition means the percentage by which the read-out fell short of the control. `O=C(O)c1ccccc1NS(=O)(=O)c1cccc(-c2cnn(Cc3ccccc3)c2)c1`: the IC50 against Nonstructural protein 5 [1] turned out to be 5.2 µM; in series [2], 700 nM; against Nonstructural protein 5 [4], 4.6 µM. For the same molecule, the inhibition stood at 23% with Hepacivirus hominis and 32% in series [3].

With `COc1cc(O)c2c(=O)cc(-c3ccc(O)cc3)oc2c1-c1cc(-c2cc(=O)c3c(O)cc(O)cc3o2)ccc1O` [SOTETSUFLAVONE], the midpoint of inhibition against Nonstructural protein 5 [5], the IC50, lay at 160 nM.

`Nc1cc(C(F)(F)F)ccc1NC(=O)Nc1cccc(S(=O)(=O)Nc2ccc(C(=O)O)cc2)c1`: 91 µM corresponded to half-maximal inhibition in series [6] (IC50).

As usually defined, the CC50 is the concentration that lowers cell viability or growth by half. Turning to `CCCCC#CC#CC#CCCCCCCCC(=O)O`, the IC50 in the series on Dengue virus [7] was found to be 2700 nM. Further, half-maximal cytotoxicity in [8] (CC50) was put at 30 µM.

`C[C@@]1(F)[C@H](O)[C@@H](COP(=O)(O)OP(=O)(O)OP(=O)(O)O)O[C@H]1n1ccc(N)nc1=O` [PSI-6130-TP]: the figures for the inhibition on NS5 (Zika virus) and in the series on Dengue virus [9] were 67.4% and 85%, respectively. The same molecule came in with a half-inhibitory concentration (IC50) in series [10] of 1600 nM.

In the case of `C#Cc1c(C#N)ncn1[C@@H]1O[C@H](CO)[C@@H](O)[C@H]1O`, the IC50 in series [11] turned out to be 550 nM. The CC50 in series [12] was 3.99 µM.

The molecule `C[C@@]1(O)[C@H](O)[C@@H](COP(=O)(O)OP(=O)(O)OP(=O)(O)O)O[C@H]1n1ccc2c(N)ncnc21` showed a 50% inhibitory concentration (IC50) against NS5 of 8.92 µM.

Molecule `O=C(N[C@@H](Cc1ccc(O)cc1)C(=O)O)c1cc(-c2ccccc2)c(=O)n2c1sc1ccc(OC3CCCCC3)cc12` came in with a half-inhibitory concentration (IC50) against Genome polyprotein of 9.61 µM.

For orientation: Kd means the concentration at which binding is half-saturated. At Nonstructural protein 5 [13], `O=C1N/C(=N\c2nnc(-c3ccccc3Cl)s2)S/C1=C\c1cccc(F)c1` gave a half-inhibitory concentration (IC50) of 2100 nM. Also, the equilibrium dissociation constant (Kd) at Nonstructural protein 5 [14] was 9.1 µM.

With `COc1ccc(CC(=O)O)cc1-c1cccs1`, the half-maximal inhibitory concentration (IC50) in series [15] was determined as 144 nM; on Nonstructural protein 5 [1], 140 µM. For the same molecule, in series [16], the Kd worked out at 29 µM. Also, the deltaH with dengue virus type 4 [17] was -5.96 kcal/mol.

Take `COc1ccc(-c2cc(=O)c3c(O)cc(O)c(-c4cc(-c5cc(=O)c6c(O)cc(O)cc6o5)ccc4O)c3o2)cc1` [PODOCARPUSFLAVONE A]: […] corresponded to half-maximal inhibition on Nonstructural protein 5 [5] (IC50).

By EC50 is commonly meant the concentration that produces a half-maximal response. With `O[C@H]1[C@H]2c3cc4c(cc3CN3CCC(=C[C@@H]1O)[C@H]23)OCO4` [LYCORINE], the concentration giving a half-maximal response (EC50) in the series with Zika virus [18] is 390 nM. Further, in series [8], the CC50 is 21 µM.

For the molecule `O=C(O)/C=C/C#CCCCCCCCC(=O)O`, half-maximal inhibition in the series with Dengue virus [7] (IC50) required 2500 nM. In series [8], this molecule returned a 50% cytotoxic concentration (CC50) above 420 µM.

Molecule `CCCC/C=C/C#CC#CCCCCCCCC(=O)O` [EXOCARPIC ACID] registered a half-inhibitory concentration (IC50) with Dengue virus [7] of 2200 nM. This molecule also came in with a CC50 in [8] of 23 µM.

Take `O=C(N[C@@H](Cc1cccc(O)c1)C(=O)O)c1cc(-c2ccccc2)c(=O)n2c1sc1ccc(C3CCCCC3)cc12`: the 50% effective concentration (EC50) in the series with Zika virus [19] amounted to 800 nM; with dengue virus type 2, 2900 nM.

Consider `CO[C@@H]1[C@H](O)[C@@H](COP(=O)(O)OP(=O)(O)OP(=O)(O)O)O[C@H]1n1ccc(N)nc1=O`, for which the inhibition on NS5 (Zika virus) came to 72.2%.

For `COc1ccc(-c2cc(C(=O)N[C@@H](Cc3ccc(O)cc3)C(=O)O)c3sc4ccc(OC5CCCCC5)cc4n3c2=O)cc1F`, the 50% effective concentration (EC50) came out at 10.7 µM in the series with Zika virus [20], 2900 nM in the series with dengue virus type 4 [21], 3.5 µM in the series with dengue virus type 3 and 5.1 µM in the series on dengue virus type 1.
